Consider one compound from PMC9147192, “Small Molecule Arranged Thermal Proximity Coaggregation (smarTPCA)—A Novel Approach to Characterize Protein–Protein Interactions in Living Cells by Similar Isothermal Dose–Responses” (International Journal of Molecular Sciences, 2022).

Broadly, the Hill slope is the slope factor of the fitted curve. One may read the pEC50 as the EC50 on a negative log10 scale, so that one unit is a factor of ten. A high value points to a small EC50.

Each structure is given as a SMILES string. pEC50: −log10 of the molar value.

The target in the test is T1, PFAS (Homo sapiens, UniProt O15067).
T1 construct: endogenous in cells; host or cells: HL-60 (ATCC CCL-240)
T1 sequence (O15067 1-1338): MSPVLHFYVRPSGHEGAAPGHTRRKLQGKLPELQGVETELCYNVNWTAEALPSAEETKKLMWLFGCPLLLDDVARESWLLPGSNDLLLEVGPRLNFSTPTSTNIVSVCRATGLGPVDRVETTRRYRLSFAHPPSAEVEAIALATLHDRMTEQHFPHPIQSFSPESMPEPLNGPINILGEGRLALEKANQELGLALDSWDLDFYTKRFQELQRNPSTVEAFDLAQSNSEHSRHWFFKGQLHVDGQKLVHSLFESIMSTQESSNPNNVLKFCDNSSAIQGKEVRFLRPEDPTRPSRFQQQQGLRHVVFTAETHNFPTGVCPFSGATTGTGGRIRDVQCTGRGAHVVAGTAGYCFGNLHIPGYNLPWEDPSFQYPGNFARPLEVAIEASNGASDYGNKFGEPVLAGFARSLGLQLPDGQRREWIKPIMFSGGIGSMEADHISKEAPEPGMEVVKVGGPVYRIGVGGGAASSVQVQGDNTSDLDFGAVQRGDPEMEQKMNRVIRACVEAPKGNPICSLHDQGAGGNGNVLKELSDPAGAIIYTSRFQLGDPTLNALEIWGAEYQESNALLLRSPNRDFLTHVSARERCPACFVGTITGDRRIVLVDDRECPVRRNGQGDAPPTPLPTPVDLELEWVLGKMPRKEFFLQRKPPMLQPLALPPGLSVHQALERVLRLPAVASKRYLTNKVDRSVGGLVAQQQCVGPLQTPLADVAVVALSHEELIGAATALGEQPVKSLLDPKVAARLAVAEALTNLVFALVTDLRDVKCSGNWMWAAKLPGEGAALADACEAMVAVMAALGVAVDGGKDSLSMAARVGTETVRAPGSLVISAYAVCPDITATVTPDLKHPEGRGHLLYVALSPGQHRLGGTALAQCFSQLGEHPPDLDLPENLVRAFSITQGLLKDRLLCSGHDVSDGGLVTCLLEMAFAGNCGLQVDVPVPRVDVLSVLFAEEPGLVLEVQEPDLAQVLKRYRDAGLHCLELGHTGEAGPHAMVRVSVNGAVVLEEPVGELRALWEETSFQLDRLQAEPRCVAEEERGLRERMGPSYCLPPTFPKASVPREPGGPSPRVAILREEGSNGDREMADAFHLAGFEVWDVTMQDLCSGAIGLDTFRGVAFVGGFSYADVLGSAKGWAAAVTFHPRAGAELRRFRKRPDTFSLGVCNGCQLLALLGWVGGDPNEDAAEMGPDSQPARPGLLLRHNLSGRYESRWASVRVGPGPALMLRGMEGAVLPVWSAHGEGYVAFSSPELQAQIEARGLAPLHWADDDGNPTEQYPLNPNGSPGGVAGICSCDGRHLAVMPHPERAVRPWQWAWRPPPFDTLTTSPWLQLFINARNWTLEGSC
Put plainly: TPP-CCR in living HL-60 cells. In kind it is cell-based.

Where [1] appears, read: living HL-60 cells, […] °C, TMT-MS.

Where the note is “TPP-CCR, living cells, PFAS”, `Cc1cnc(Nc2ccc(F)cc2Cl)nc1-c1c[nH]c(C(=O)N[C@H](CO)c2cccc(Cl)c2)c1` [ERK 11e] showed a Hill slope of 0.30. For the same compound, under setting [1], the pEC50 is 5.93 and the “Hill slope (PFAS)” value was determined as 0.30.
